From ChEMBL document CHEMBL4433198, “Fragment-to-Lead Medicinal Chemistry Publications in 2017” (J Med Chem, 2019) come the findings set out here.

This assay concerns the target Induced myeloid leukemia cell differentiation protein Mcl-1 (Homo sapiens, UniProt Q07820). In words: Binding affinity to MCL1 (unknown origin) assessed as inhibition of Mcl1-FAMbid protein-protein interaction after 1 min by fluorescence polarization assay. In general terms: In fluorescence polarisation assays a small probe gives low polarisation when free and higher when bound to something large.

Sequence of Induced myeloid leukemia cell differentiation protein Mcl-1 (Q07820 whole entry): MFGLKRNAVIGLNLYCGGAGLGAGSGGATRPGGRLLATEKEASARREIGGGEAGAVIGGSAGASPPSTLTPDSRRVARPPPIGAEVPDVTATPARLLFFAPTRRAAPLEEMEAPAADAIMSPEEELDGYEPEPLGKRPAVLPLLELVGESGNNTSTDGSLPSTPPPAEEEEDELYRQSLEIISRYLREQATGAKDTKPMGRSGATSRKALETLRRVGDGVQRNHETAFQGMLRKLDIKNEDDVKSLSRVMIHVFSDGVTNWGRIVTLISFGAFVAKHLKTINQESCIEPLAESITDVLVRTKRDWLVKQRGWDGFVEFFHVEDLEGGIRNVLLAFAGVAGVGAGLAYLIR

In general, Kd refers to the constant that tells how readily two partners part at equilibrium. In the case of `O=C(O)c1cc2ccccc2n1S(=O)(=O)c1ccc(OCc2cccc(Cl)c2)cc1`, the Kd was 0.48 µM.
